# In US10265287B2, “Methods of reducing triglycerides and LDL-C” (Amarin Pharmaceuticals Ireland Limited, priority 2009, dated 2019):
# Experiment: Lipid peroxide (LOOH) formation in model membranes, CHOD-iodide colorimetric assay
# Type: biochemical
# Conditions: cholesterol-enriched membranes
# Method: An experiment was conducted to test EPA, DHA, EPA+DHA with and without with atorvastatin in model membranes enriched with PUFAs and cholesterol at levels that reproduce disease or high CV-risk conditions (i.e. hypercholesterimia). […] EPA and DHA were tested individually at a fixed concentration of 10.0 uM or in combination at 5.65 μM and 4.35 μM (EPA and DHA, respectively), which is a mole ratio of 1.3:1. Separate and combined effects of these agents on lipid peroxide (LOOH) formation were examined at cholesterol-to-phospholipid (C/P) mole ratios of 0.5:1, 1.0:1 and 1.5:1. Levels of lipid hydroperoxides were also measured for EPA, DPH and EPA/DPH in cholesterol-enriched membrane prepared in the absence and presence of atorvastatin. […] To ensure spectrophotometric readings within the optimum absorbance range, sample volumes taken for measurement of lipid peroxide formation were adjusted for length of peroxidation and range between 100 and 10 μl. […] Absorbances were measured against a CHOD blank at 365 nm using a Beckman DU-640 spectrophotometer. The CHOD colorimetric assay is based on the oxidation of iodide (I^-) by lipid hydroperoxides (LOOH) and proceeds according to the following reaction scheme: […]3^- The quantity of triiodide anion (I3^-) liberated in this reaction is directly proportional to the amount of lipid hydroperoxides present in the membrane sample. […]
smiles,measurement,setting,value
"CCC=CCC=CCC=CCC=CCC=CCCCC(=O)O [EPA, eicosa-5,8,11,14,17-pentaenoic acid]",antioxidant benefit compared with DHA,EPA and DHA each tested at 10.0 uM,superior to that observed with DHA
same,antioxidant benefit (lipid peroxide (LOOH) formation),"autoxidation at 37° C., EPA tested at 10.0 uM",potent antioxidant benefit
